Measurements as given in the supplement of paper PMC10307832.

How the values were obtained:
Assay in all cases: relative viability (nuclei count vs DMSO), 5 days (fraction); higher = more cells survive
[1] = compound: C=CCn1c(=O)c2cnc(Nc3ccc(N4CCN(C)CC4)cc3)nc2n1-c1cccc(C(C)(C)O)n1 [Adavosertib] + CC(=O)Nc1cccc(-n2c(=O)n(C3CC3)c(=O)c3c(Nc4ccc(I)cc4F)n(C)c(=O)c(C)c32)c1 [Trametinib] (partner 0.02 µM)
Outline: (§1)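 Relative viability equals treated-well nuclei counts divided by vehicle-well nuclei counts. Counts came from 4× images of lung cancer cell lines grown in 1536-well plates for 5 days after pin-tool dosing on the day after seeding. Dosing used one drug alone or a fixed anchor-drug dose plus five library-drug doses (not always all listed) in √10 steps, and values are medians of duplicate plates.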

[2] = compound: C=CCn1c(=O)c2cnc(Nc3ccc(N4CCN(C)CC4)cc3)nc2n1-c1cccc(C(C)(C)O)n1 [Adavosertib] + CCNC(=O)c1noc(-c2cc(C(C)C)c(O)cc2O)c1-c1ccc(CN2CCOCC2)cc1 [Luminespib] (partner 0.01 µM)
Outline: as §1

[3] = compound: COc1nc(N)nc2c1ncn2[C@@H]1O[C@H](CO)[C@@H](O)[C@@H]1O [Nelarabine] + CS(=O)(=O)N1CCN(Cc2cc3nc(-c4cccc5[nH]ncc45)nc(N4CCOCC4)c3s2)CC1 [Pictilisib] (partner 1 µM)
Outline: as §1

[4] = compound: COc1nc(N)nc2c1ncn2[C@@H]1O[C@H](CO)[C@@H](O)[C@@H]1O [Nelarabine] + O=C(c1cc(Cc2n[nH]c(=O)c3ccccc23)ccc1F)N1CCN(C(=O)C2CC2)CC1 [Olaparib] (partner 8 µM)
Outline: as §1

Row | Cell Line | relative viability ([1]; first compound 0.01 µM) | relative viability ([1]; first compound 0.03162 µM) | relative viability ([1]; first compound 0.1 µM) | relative viability ([1]; first compound 0.3162 µM) | relative viability ([2]; first compound 0.01 µM) | relative viability ([2]; first compound 0.03162 µM) | relative viability ([2]; first compound 0.1 µM) | relative viability ([2]; first compound 0.3162 µM) | relative viability ([3]; first compound 0.01 µM) | relative viability ([3]; first compound 0.03162 µM) | relative viability ([3]; first compound 0.1 µM) | relative viability ([3]; first compound 0.3162 µM) | relative viability ([3]; first compound 1 µM) | relative viability ([4]; first compound 0.01 µM) | relative viability ([4]; first compound 0.03162 µM) | relative viability ([4]; first compound 0.1 µM) | relative viability ([4]; first compound 0.3162 µM) | relative viability ([4]; first compound 1 µM)
1 | NCI-H1355 | 0.442 | 0.373 | 0.445 | 0.457 | 0.671 | 0.644 | 0.617 | 0.631 | 0.484 | 0.366 | 0.335 | 0.465 | 0.478 | 0.824 | 0.6 | 0.684 | 0.766 | 0.74
2 | NCI-H1944 | 0.376 | 0.377 | 0.378 | 0.372 | 0.696 | 0.715 | 0.655 | 0.575 | 0.369 | 0.322 | 0.339 | 0.399 | 0.366 | 0.486 | 0.436 | 0.481 | 0.435 | 0.419
